The assay addresses BTK (Homo sapiens (Human), UniProt Q06187). The experiment in a line: Btk kinase assay (HTRF). Type of assay: biochemical. To be noted: [ATP]=80 μM, BTK=3.4 nM; read-out: BTK Inhibition. An outline of the steps:
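BTK (3.4 nM) incubated 1 h with inhibitor, 80 μM ATP and 1 μM peptide substrate in 50 mM HEPES pH 7.0 with BSA and orthovanadate. Reaction stopped with EDTA plus Eu-antibody/XL665; HTRF 665/615 ratio read after 1 h, IC50 calculated relative to no-inhibitor and no-enzyme controls.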
A general note: TR-FRET usually uses a lanthanide donor and a delayed reading to cut background.

Bounds are passed on as bounds.

Chain of BTK (Q06187 whole entry, species assumed): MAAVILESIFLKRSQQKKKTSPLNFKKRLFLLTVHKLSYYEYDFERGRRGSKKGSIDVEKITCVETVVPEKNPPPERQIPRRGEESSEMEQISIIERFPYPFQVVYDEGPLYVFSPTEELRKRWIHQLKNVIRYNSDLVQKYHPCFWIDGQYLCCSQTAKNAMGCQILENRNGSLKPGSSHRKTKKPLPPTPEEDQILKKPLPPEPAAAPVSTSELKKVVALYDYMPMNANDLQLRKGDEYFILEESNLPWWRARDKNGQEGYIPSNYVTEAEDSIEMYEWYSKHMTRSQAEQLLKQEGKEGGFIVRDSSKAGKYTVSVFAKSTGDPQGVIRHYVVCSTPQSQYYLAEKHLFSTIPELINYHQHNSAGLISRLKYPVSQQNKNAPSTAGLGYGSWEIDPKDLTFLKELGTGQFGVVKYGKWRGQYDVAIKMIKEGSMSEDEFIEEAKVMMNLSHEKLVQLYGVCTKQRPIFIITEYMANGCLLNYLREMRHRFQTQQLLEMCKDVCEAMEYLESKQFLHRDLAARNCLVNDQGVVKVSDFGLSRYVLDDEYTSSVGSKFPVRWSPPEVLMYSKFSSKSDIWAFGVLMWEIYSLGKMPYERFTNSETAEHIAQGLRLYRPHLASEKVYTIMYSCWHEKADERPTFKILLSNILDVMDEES

`C=CC(=O)Nc1cccc(-n2c(=O)n(-c3ccc(Oc4cccc(C)c4)c(C)c3)c3cnccc32)c1` [Example 47, N-(3-(3-(3-methyl-4-(m-tolyloxy)phenyl)-2-oxo-2,3-dihydro-1H-imidazo[4,5-c]pyridin-1-yl)phenyl) acrylamide]: the IC50 was 1000 to 10000 nM.
The same measure for `C=CC(=O)Nc1cccc(-n2c(=O)n(-c3cccc(Oc4cccc(OC)c4)c3)c3cnccc32)c1` [Example 87, N-(3-(3-(3-(3-methoxyphenoxy)phenyl)-2-oxo-2,3-dihydro-1H-imidazo[4,5-c]pyridin-1-yl)phenyl)acrylamide]: 10 to 100 nM; for `C=CC(=O)N1CC[C@@H](n2c(=O)n(-c3ccc(Oc4ccccc4)cc3)c3cccnc32)C1` [Example 120, (R)-3-(1-acryloylpyrrolidin-3-yl)-1-(4-phenoxyphenyl)-1H-imidazo[4,5-b]pyridin-2(3H)-one]: 1000 to 10000 nM.
The same measure for `C=CC(=O)Nc1cccc(-n2c(=O)n(-c3ccc(Oc4cccc(OC)c4)cc3)c3cnccc32)c1` [Example 158, N-(3-(3-(4-(3-methoxyphenoxy)phenyl)-2-oxo-2,3-dihydro-1H-imidazo[4,5-c]pyridin-1-yl)phenyl) acrylamide]: 10 to 100 nM.
The same measure for `C=CC(=O)Nc1cccc(-n2c(=O)n(-c3ccc(NC(=O)c4cccc(OC)c4)cc3)c3cnccc32)c1` [Example 266, N-(4-(1-(3-acrylamidophenyl)-2-oxo-1H-imidazo[4,5-c]pyridin-3(2H)-yl)phenyl)-3-methoxybenzamide]: 100 to 1000 nM; for `C=CC(=O)N1CC[C@@H](n2c(=O)n(-c3ccc(Oc4ccccc4)cc3)c3cncc(C#N)c32)C1` [Example 181, (R)-1-(1-acryloylpyrrolidin-3-yl)-oxo-3-(4-phenoxyphenyl)-2,3-dihydro-1H-imidazo[4,5-c] pyridine-7-carbonitrile]: 10 to 100 nM; for `C=CC(=O)N1CC[C@@H](n2c(=O)n(-c3ccc(-c4ccc(Cl)cc4Cl)cc3)c3cnccc32)C1` [Example 275]: at least 10000 nM.
As to `C=CC(=O)N1CCC[C@@H](n2c(=O)n(-c3ccc(Oc4cccc(Cl)c4)cc3)c3cnccc32)C1` [Example 106, (R)-1-(1-acryloylpiperidin-3-yl)-3-(4-(3-chlorophenoxy)phenyl)-1H-imidazo[4,5-c]pyridin-2(3H)-one], the IC50 is 10 to 100 nM.
The same measure for `C=CC(=O)N1CCC(n2c(=O)n(-c3ccc(Oc4cccnn4)cc3)c3cnccc32)C1` (stereo not drawn) [Example 165, 1-(1-acryloylpyrrolidin-3-yl)-3-(4-(pyridazin-3-yloxy)phenyl)-1H-imidazo[4,5-c]pyridin-2(3H)-one]: 100 to 1000 nM; for `C=CC(=O)Nc1cccc(-n2c(=O)n(-c3ccc(OCc4cccc(Cl)c4)cc3)c3cnccc32)c1` [Example 230, N-(3-(3-(4-((3-chlorobenzyl)oxy)phenyl)-2-oxo-2,3-dihydro-1H-imidazo[4,5-c]pyridin-1-yl)phenyl)acrylamide]: 10 to 100 nM; for `C=CC(=O)N1CC[C@@H](n2c(=O)n(-c3ccc(Oc4ccccc4)cc3)c3cnccc32)C1` [Example 33, (R)-1-(1-acryloylpyrrolidin-3-yl)-3-(4-phenoxyphenyl)-1H-imidazo[4,5-c]pyridin-2(3H)-one]: 10 to 100 nM.
`C=CC(=O)Nc1cccc(-n2c(=O)n(-c3ccc(Oc4cc(F)cc(F)c4)cc3)c3cnccc32)c1` [Example 127, N-(3-(3-(4-(3,5-difluorophenoxy)phenyl)-2-oxo-2,3-dihydro-1H-imidazo[4,5-c]pyridin-1-yl)phenyl)acrylamide]: the IC50 was in the range of 100 to 1000 nM.
For `C=CC(=O)Nc1cccc(-n2c(=O)n(-c3ccc(Oc4ccnc(C(=O)NC)c4)cc3)c3cnccc32)c1` [Example 115, 4-(4-(1-(3-acrylamidophenyl)-2-oxo-1H-imidazo[4,5-c]pyridin-3(2H)-yl)phenoxy)-N-methylpicolinamide], the IC50 was in the range of 100 to 1000 nM.
In the case of `O=C(O)C(=O)N1CCCC(n2c(=O)n(-c3ccc(Oc4ccccc4)cc3)c3cnccc32)C1` (stereo not drawn) [Example 192, 2-oxo-2-(3-(2-oxo-3-(4-phenoxyphenyl)-2,3-dihydro-1H-imidazo[4,5-c]pyridin-1-yl)piperidin-1-yl)acetic acid], the IC50 fell in the range of 1000 to 10000 nM.
As for `C=CC(=O)Nc1cccc(-n2c(=O)n(-c3ccc(Oc4cccc(Cl)c4F)cc3)c3cnccc32)c1` [Example 54, N-(3-(3-(4-(3-chloro-2-fluorophenoxy)phenyl)-2-oxo-2,3-dihydro-1H-imidazo[4,5-c]pyridin-1-yl)phenyl)acrylamide], the IC50 was in the range of 10 to 100 nM.
On to `C=CC(=O)Nc1cccc(-n2c(=O)n(-c3ccc(Oc4cccc(Cl)c4C)cc3)c3cnccc32)c1` [Example 150, N-(3-(3-(4-(3-chloro-2-methylphenoxy)phenyl)-2-oxo-2,3-dihydro-1H-imidazo[4,5-c]pyridin-1-yl)phenyl)acrylamide], for which the IC50 was in the range of 10 to 100 nM.
The same measure for `C=CC(=O)N1CCC[C@@H](n2c(=O)n(-c3ccc(Oc4cccc(OC)c4F)cc3)c3cncc(OC)c32)C1` [Example 166, (R)-1-(1-acryloylpiperidin-3-yl)-3-(4-(2-fluoro-3-methoxyphenoxy)phenyl)-7-methoxy-1H-imidazo[4,5-c]pyridin-2(3H)-one]: at most 10 nM; for `C=CC(=O)Nc1cccc(-n2c(=O)n(-c3cccc(Oc4cccc(C)c4)c3)c3cnccc32)c1` [Example 152, N-(3-(2-oxo-3-(3-(m-tolyloxy)phenyl)-2,3-dihydro-1H-imidazo[4,5-c]pyridin-1-yl)phenyl)acrylamide]: 10 to 100 nM; for `CC#CC(=O)N1CCC[C@@H](n2c(=O)n(-c3ccc(Oc4cccc(OC)c4F)cc3)c3cncc(C)c32)C1` [Example 171, (R)-1-(1-(but-2-ynoyl)piperidin-3-yl)-3-(4-(2-fluoro-3-methoxyphenoxy)phenyl)-7-methyl-1H-imidazo[4,5-c]pyridin-2(3H)-one]: 100 to 1000 nM.
As for `C=CC(=O)Nc1cccc(-n2c(=O)n(-c3cccc(NC(=O)c4ccc(C(C)(C)C)cc4)c3)c3cnccc32)c1` [Example 260, N-(3-(1-(3-acrylamidophenyl)-2-oxo-1H-imidazo[4,5-c]pyridin-3(2H)-yl)phenyl)-4-(tert-butyl)benzamide], the IC50 fell in the range of 10 to 100 nM.
The same measure for `C=CC(=O)Nc1cccc(-n2c(=O)n(-c3ccc(C(=O)N4CCOCC4)cc3)c3cnccc32)c1` [Example 253, N-(3-(3-(4-(morpholine-4-carbonyl)phenyl)-2-oxo-2,3-dihydro-1H-imidazo[4,5-c]pyridin-1-yl)phenyl)acrylamide]: 1000 to 10000 nM; for `C=CC(=O)Nc1cccc(-n2c(=O)n(-c3ccc(-c4ccccc4)cc3)c3cnccc32)c1` [Example 271, N-(3-(3-([1,1′-biphenyl]-4-yl)-2-oxo-2,3-dihydro-1H-imidazo[4,5-c]pyridin-1-yl)phenyl)acrylamide]: 10 to 100 nM.
In the case of `C=CC(=O)Nc1cccc(-n2c(=O)n(-c3cccc(Oc4ccc(C)cc4)c3)c3cnccc32)c1` [Example 76, N-(3-(2-oxo-3-(3-(p-tolyloxy)phenyl)-2,3-dihydro-1H-imidazo[4,5-c]pyridin-1-yl)phenyl)acrylamide], the IC50 is 10 to 100 nM.
On to `C=CC(=O)Nc1cccc(-n2c(=O)n(-c3ccc(OCc4cccc(F)c4)cc3)c3cnccc32)c1` [Example 222, N-(3-(3-(4-((3-fluorobenzyl)oxy)phenyl)-2-oxo-2,3-dihydro-1H-imidazo[4,5-c]pyridin-1-yl)phenyl)acrylamide], for which the IC50 lay within 10 to 100 nM.
